{
  "source": "patent US8921107B2",
  "about": "“Method for differentiating human neural progenitor cells into dopaminergic neurons, and medium for differentiation thereof” (College of Medicine Pochon Cha University Industry-Academic …, priority 2010, dated 2014)",
  "key": {"[1]": {"test_system": "human neural progenitor cells (hNPCs)", "experiment": "Differentiation of hNPCs into dopaminergic neurons in media with various additives; TH and Tuj1 counted with DAPI staining (FIG. 1)", "type": "cell-based", "protocol": "For dopaminergic differentiation, hNPCs were plated onto a culture dish pre-coated with 15 μg/ml of poly-L-ornithine and 4 μg/ml of fibronectin at a density of 30,000 cells/cm^2; and after 2 or 3 days the cells were cultured in a NB medium comprising differentiation-inducing agents such as 2% of B27 minus-AO supplement (GIBCO), 10 μM of forskolin, 1 mM of db-cAMP and […] of fusaric acid, at 37° C. for 7 days, unless otherwise described.\nhNPCs were washed with PBS three times and then fixed with 4% paraformaldehyde in PBS for 10 minutes. The cells were washed with PBS three times and then blocked by reacting with 3% Normal goat serum, 0.2% Triton X-100 and 1% BSA in PBS at room temperature for 1 hour. […]\nhNPCs were differentiated into dopaminergic neurons in media obtained by adding interleukin 1 beta, db-cAMP, and fusaric acid (Fus), in various concentrations and combinations, to a Neurobasal medium [differentiation medium (DM) control]. TH (a dopaminergic neuron marker) and Tuj1 (a neural marker) were measured through the DAPI staining (FIG. 1)."}, "[2]": {"test_system": "human neural progenitor cells (hNPCs)", "experiment": "Differentiation of hNPCs in NB medium with or without 100 μM fusaric acid; TH and Tuj1 expression, immunocytochemistry and RT-PCR (FIGS. 2, 3)", "type": "cell-based", "settings": "100 μM fusaric acid added to NB medium with 2% B-27 minus-AO, 10 μM forskolin, 1 mM db-cAMP, versus without", "protocol": "Total cellular RNAs were extracted from the hNPC, using Trizol and chloroform. cDNAs were synthesized from 500 ng of the total RNAs, using RNA Superscript II RTase, Oligo-d(T) primers, DTT and dNTPs, according to the manufacturer's protocol. The PCR was performed in a final volume of 20 μl containing 1 μl of cDNA and 1 μl of 10 pM primers, using a SYBR-Green mixture. The expressions of TH, DAT, GFAP, Nurr1, Tuj1, and Lmx1a were analyzed, using RPL22 as an internal control. The quantitative real-time PCR was performed using the LightCycler System. The amplification was monitored and analyzed through measuring the binding of the fluorescent dye SYBR Green to double-stranded DNA. The target DNAs were amplified by performing total 40 cycles, under the conditions at 95° C. for 10 seconds, at 60° C. for 10 seconds, at 72° C. for 20 seconds. Final extension was performed at 72° C. for 10 minutes. Results were expressed relative to the gene RPL-22 by comparative Ct method. The primers used in the PCR are described in Table 1. […]\nhNPCs were proliferated in a DMEM/F12 (1:1) Glutamax medium, and then differentiated to neurons in a Neurobasal (NB) medium containing 2% of B-27 minus-AO supplement (GIBCO), 10 μM of forskolin, and 1 mM of db-cAMP, along with or without 100 μM of fusaric acid. After induction of the differentiation, the expression levels of TH and Tuj1 were measured (FIG. 2)."}, "[3]": {"test_system": "human neural progenitor cells (hNPCs)", "experiment": "Substitution potential for SHH and FGF8 as differentiation-inducing agents; TH expression (FIG. 4)", "type": "cell-based", "protocol": "In order to evaluate substitution potential for the expensive SHH and FGF8 that are of limited use as a differentiation-inducing agent, hNPCs were proliferated in a DMEM/F12 (1:1) Glutamax medium. After induction of the differentiation in a Neurobasal (NB) medium (Invitrogen) using 2% of B-27, 200 ng/ml of SHH, 25 ng/ml of FGF8, 10 μM of forskolin, 100 μM of fusaric acid, and 100 μM of db-cAMP, the expression levels of TH were measured (FIG. 4)."}, "[4]": {"test_system": "human neural progenitor cells (hNPCs)", "experiment": "Differentiation of hNPCs under hypoxia or normoxia; TH expression (FIG. 5)", "type": "cell-based", "settings": "NB medium with 2% B-27, 10 μM forskolin, 100 μM fusaric acid, 100 μM db-cAMP; 3% versus 21% oxygen partial pressure", "protocol": "hNPCs were proliferated in a DMEM/F12 (1:1) Glutamax medium, and then differentiated in a Neurobasal (NB) medium (Invitrogen) containing 2% of B-27, 10 μM of forskolin, 100 μM of fusaric acid, and 100 μM of db-cAMP, under the hypoxia condition (3% of oxygen partial pressure) or the normoxia condition (21% of oxygen partial pressure). After induction of the differentiation, the expression levels of TH were measured (FIG. 5)."}, "[5]": {"test_system": "TH-expressing cells (dopaminergic neurons) differentiated from hNPCs", "experiment": "Neuroprotective effect: differentiation induced in the presence of MPP (FIG. 6)", "type": "cell-based, human", "excerpt": "It is known that 1-methyl-4-phenylpyridium (MPP) induces cytotoxicity on dopaminergic neurons. Therefore, we evaluated functions of fusaric acid during the differentiation, through inducing differentiation in the presence of MPP (FIG. 6)."}, "[6]": {"settings": "differentiation in medium containing fusaric acid, in the presence of MPP"}},
  "note": "“Also recorded” adds a separate entry of the source.",
  "data": [
    {"compound": "CCCCc1ccc(C(=O)O)nc1", "note": "[fusaric acid, 5-butylpicolinic acid]", "values": [
      {"measurement": "expression levels of TH and Tuj1 (differentiation potential)", "setting": "[1]; culture medium containing db-cAMP and fusaric acid, compared with other combinations (interleukin 1 beta, db-cAMP, fusaric acid) in Neurobasal medium", "value": "highest expression levels of TH and Tuj1"},
      {"measurement": "differentiation potential by concentration", "setting": "[1]; db-cAMP and fusaric acid each at 100 μM", "value": "the highest differentiation potential was obtained"},
      {"measurement": "expression of TH (dopaminergic neuron marker)", "setting": "[2]", "value": "remarkably high expressed"},
      {"measurement": "expression of Tuj1 (neuronal marker)", "setting": "[2]", "value": "also increased"},
      {"measurement": "differentiation into dopaminergic neurons (TH expression)", "setting": "[3]; 100 μM fusaric acid added in addition to 200 ng/ml SHH and 25 ng/ml FGF8", "value": "more increased"},
      {"measurement": "differentiation into dopaminergic neurons (TH expression)", "setting": "[3]; 100 μM fusaric acid instead of SHH and FGF8, NB medium, 2% B-27, 10 μM forskolin, 100 μM db-cAMP", "value": "higher differentiation potential into dopaminergic neurons; also recorded: differentiated most effectively into dopaminergic neurons"},
      {"measurement": "differentiation into dopaminergic neurons (TH expression), hypoxia versus normoxia", "setting": "[4]", "value": "differentiated more efficiently into dopaminergic neurons in hypoxia than in normoxia"},
      {"measurement": "neuroprotective activity", "setting": "[5]; conclusion from FIG. 6, MPP treatment", "value": "has neuroprotective activity"},
      {"measurement": "expression of Tuj1 under MPP treatment", "setting": "[5]; [6]", "value": "relatively more expressed"},
      {"measurement": "survival of TH-expressing cells under MPP treatment", "setting": "[5]; [6]", "value": "more TH-expressing cells survived"}
    ]}
  ]
}
